From the supplement of paper PMC11208160

Experiment: recombinant barcode read abundance after kanamycin selection (control-corrected) (log10(CPM+1)); higher = more efficient recombination; sequences stand for … in AGTGCAGAGAAAATCGGCCAGTTTTCTCTGCCTGCAGTCCGCATGCCGT…AGATTTATGCAGCGGACTGCCTTTCTCCCAAAGTGATAAACCGGACAGTATCATGGACCGGTTTTCCCGGTAATCCGTATTTGCAAGGTTGGTTTCACT; site = the 11-nt target
Description: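 Pooled E. coli target-specificity screen for the IS621 bridge recombinase. Each library plasmid pairs an 11-nt target (CT core) with a bridge RNA whose target-binding loop (9-nt LTG + 4-nt RTG) is reprogrammed; the rest of the 177-nt WT IS621 bridge RNA scaffold is fixed. The plasmid is co-electroporated with a WT donor plasmid; recombinase is induced with 0.1 mM IPTG and recombinants are selected on kanamycin. Recombinant barcodes are sequenced, converted to CPM, averaged over two biological replicates and corrected by the unselected control CPM. Molecule = full bridge RNA written as DNA: LTG = specificity nt 1-9, RTG = reverse complement of specificity nt 8-11, in the WT scaffold.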
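Note: IS621 recombinase and bridge RNA in Escherichia coli cells.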

Sequence | recombinant barcode read abundance (log10)
AATGCTCCTTGGGTTCTAACCTGTTGCTT (site AATGCTCCTAC) | 0.0515
AATGCTCCTTGGGTTCTAACCTGTTGCTT (site AATGCTCCTAG) | 0.103
AATGCTCCTTGGGTTCTAACCTGTTGCTT (site AATGCTCCTAT) | 0.135
AATGCTTCTTGGGTTCTAACCTGTTGCTT (site AATGCTTCTAA) | 0.398
AATGCTTCTTGGGTTCTAACCTGTTGCTT (site GATGCTTCTAA) | 0.143
AATGGGACTTGGGTTCTAACCTGTTGCGA (site AATGGGACTCA) | 0.331
AATGGGACTTGGGTTCTAACCTGTTGCGA (site AATGGGACTTC) | 2.42
AATGGGACTTGGGTTCTAACCTGTTGCTG (site AATGGGACTCA) | 2.47
AATGGGACTTGGGTTCTAACCTGTTGCTG (site AATGGGACTTC) | 1.55
AATGGTCCTTGGGTTCTAACCTGTTGCCA (site AATGGTCCTTG) | 0.588
AATGGTCCTTGGGTTCTAACCTGTTGCCA (site CTAATATCTAT) | 0.337
AATTAGTCTTGGGTTCTAACCTGTTGCGG (site AATTAGTCTCC) | 2.2
AATTAGTCTTGGGTTCTAACCTGTTGCGG (site AGTTAGTCTCC) | 0.312
AATTGAGCTTGGGTTCTAACCTGTTGCCT (site AATTAAGCTAG) | 0.0773
AATTGAGCTTGGGTTCTAACCTGTTGCCT (site AATTCAGCTAG) | 0.0625
AATTGAGCTTGGGTTCTAACCTGTTGCCT (site AATTGAGCTAG) | 0.887
AATTGAGCTTGGGTTCTAACCTGTTGCCT (site AATTTAGCTAG) | 0.242
AATTGCCCTTGGGTTCTAACCTGTTGCCT (site AATTGCCCTAG) | 0.369
AATTGCCCTTGGGTTCTAACCTGTTGCCT (site ACTTGCCCTAG) | 0.00964
AATTGCCCTTGGGTTCTAACCTGTTGCCT (site AGTTGCCCTAG) | 0.0557
AATTGCCCTTGGGTTCTAACCTGTTGCCT (site ATTTGCCCTAG) | 0.166
AATTGGACTTGGGTTCTAACCTGTTGCTT (site AATTGGACTAA) | 0.355

Sequence | recombinant barcode read abundance (log10)
AATTGGACTTGGGTTCTAACCTGTTGCTT (site CATTGGACTAA) | 0.0957
AATTGGACTTGGGTTCTAACCTGTTGCTT (site GATTGGACTAA) | 0.0807
AATTGGACTTGGGTTCTAACCTGTTGCTT (site TATTGGACTAA) | 0.455
AATTGTCCTTGGGTTCTAACCTGTTGCGT (site AATTGTCCTAA) | 0.0377
AATTGTCCTTGGGTTCTAACCTGTTGCGT (site AATTGTCCTAC) | 1.17
AATTGTCCTTGGGTTCTAACCTGTTGCGT (site AATTGTCCTAG) | 0.154
AATTGTCCTTGGGTTCTAACCTGTTGCGT (site AATTGTCCTAT) | 0.0639
ACAAACCCTTGGGTTCTAACCTGTTGCTA (site ACAAACCCTTA) | 0.672
ACAAACCCTTGGGTTCTAACCTGTTGCTA (site CTGGCAGCTAG) | 0.85
ACAAATCCTTGGGTTCTAACCTGTTGCCT (site ACAAAACCTAG) | 0.116
ACAAATCCTTGGGTTCTAACCTGTTGCCT (site ACAAACCCTAG) | 0.292
ACAAATCCTTGGGTTCTAACCTGTTGCCT (site ACAAAGCCTAG) | 0.0186
ACAAATCCTTGGGTTCTAACCTGTTGCCT (site ACAAATCCTAG) | 0.591
ACAACGACTTGGGTTCTAACCTGTTGCCT (site ACAACCACTAG) | 0.0471
ACAACGACTTGGGTTCTAACCTGTTGCCT (site ACAACGACTAG) | 0.689
ACAAGGCCTTGGGTTCTAACCTGTTGCAT (site ACAAGGCCTAT) | 1.38
ACAAGGCCTTGGGTTCTAACCTGTTGCAT (site TGCCCCTCTCG) | 0.263
ACAAGGGCTTGGGTTCTAACCTGTTGCTG (site ACAAGGGCTCA) | 2.06
ACAAGGGCTTGGGTTCTAACCTGTTGCTG (site GAGGCTACTAT) | 0.531
ACAATATCTTGGGTTCTAACCTGTTGCCT (site ACAATATCTAG) | 0.774
ACAATATCTTGGGTTCTAACCTGTTGCCT (site ACATGATCTAG) | 0.242
ACACATACTTGGGTTCTAACCTGTTGCCT (site ACACATACTAG) | 0.302

Sequence | recombinant barcode read abundance (log10)
ACACATACTTGGGTTCTAACCTGTTGCCT (site ACGCATACTAG) | 0.104
ACACCCTCTTGGGTTCTAACCTGTTGCAG (site ACACCCTCTCT) | 1.79
ACACCCTCTTGGGTTCTAACCTGTTGCAG (site GGTATAACTTG) | 0.271
ACACCGTCTTGGGTTCTAACCTGTTGCCT (site ACACCGTCTAG) | 2.12
ACACCGTCTTGGGTTCTAACCTGTTGCCT (site AGACCTTCTAG) | 0
ACACGACCTTGGGTTCTAACCTGTTGCGG (site ACACGACCTCC) | 2.48
ACACGACCTTGGGTTCTAACCTGTTGCGG (site ACAGGAGCTCC) | 0
ACAGAGACTTGGGTTCTAACCTGTTGCAG (site ACAGAGACTCT) | 1.35
ACAGAGACTTGGGTTCTAACCTGTTGCAG (site ACGTAGACTCT) | 0.113
ACAGCTACTTGGGTTCTAACCTGTTGCCT (site ACAGCTACTAG) | 1.84
ACAGCTACTTGGGTTCTAACCTGTTGCCT (site ACAGCTTCTAG) | 0.33
ACAGCTACTTGGGTTCTAACCTGTTGCTT (site ACAGCTACTAA) | 0.699
ACAGCTACTTGGGTTCTAACCTGTTGCTT (site GCAGCTACTCA) | 0.0436
ACAGGGTCTTGGGTTCTAACCTGTTGCCT (site AAAGGGTCTAG) | 0
ACAGGGTCTTGGGTTCTAACCTGTTGCCT (site ACAGGGTCTAG) | 2.32
ACAGGGTCTTGGGTTCTAACCTGTTGCCT (site AGAGGGTCTAG) | 0.193
ACAGGGTCTTGGGTTCTAACCTGTTGCCT (site ATAGGGTCTAG) | 0.355
ACAGGTCCTTGGGTTCTAACCTGTTGCCG (site ACAGGTCCTCG) | 2.34
ACAGGTCCTTGGGTTCTAACCTGTTGCCG (site GTCTAATCTAT) | 0.12
ACAGTACCTTGGGTTCTAACCTGTTGCTG (site ACAGTACCTCA) | 1.87
ACAGTACCTTGGGTTCTAACCTGTTGCTG (site TAGCCCTCTTT) | 0.204
ACAGTTACTTGGGTTCTAACCTGTTGCAT (site ACAGTTACTAT) | 1.29
